Reference: BindingDB's records for doi:10.1016/j.bmcl.2009.09.014 (Johnson & Johnson Pharmaceutical, 2009)

Target: Cathepsin S (Homo sapiens, UniProt P25774)
Test: Cathepsn S Inhibition Assay
Settings: pH 5; 23 °C
Description: Enzyme assays were run using fluorescence resonance energy transfer-based substrates, (Aedens)[…](Dabcyl)K-amide and cathepsin S cleaves between amino acids Leu-6 and Ala-7. The fluorescence of the aedens group is quenched by the dabcyl moiety in the intact peptide. Upon cleavage by cathepsin S, the quenching is released and the fluorescence of the aedens group can be measured. The increase in fluorescence was measured on a Cytofluor II (Applied Biosystems, Foster City, CA) with an excitation filter of 360/40 nm and an emission filter of 460/40 nm. A reading was made every minute for 20 to 60 min, and the slope obtained from a linear regression of this time course was used as the reaction rate. The reaction rates were determined for different inhibitor concentrations, and the percentage of inhibition was determined by comparison with the reaction rate in the absence of inhibitor. IC50 values were determined by four parameter fits of plots of the percentage of inhibition versus inhibitor concentration using the program GraFit (Erithacus Software Ltd.).

Chain of Cathepsin S (P25774 whole entry): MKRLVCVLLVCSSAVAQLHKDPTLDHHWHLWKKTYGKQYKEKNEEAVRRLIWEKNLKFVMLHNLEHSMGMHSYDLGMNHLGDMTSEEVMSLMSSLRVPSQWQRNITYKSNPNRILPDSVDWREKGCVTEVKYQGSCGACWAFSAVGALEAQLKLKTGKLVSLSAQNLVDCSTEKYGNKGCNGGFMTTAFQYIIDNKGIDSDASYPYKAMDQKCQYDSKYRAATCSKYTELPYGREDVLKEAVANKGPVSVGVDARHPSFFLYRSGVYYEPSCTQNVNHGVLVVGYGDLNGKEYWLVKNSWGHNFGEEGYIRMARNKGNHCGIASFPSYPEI

IC50 [µM]	Compound
0.04	COC(=O)C(=O)N1CCc2c(c(-c3ccc(Cl)c(C#Cc4ccc(Cl)cc4)c3)nn2CCCN2CCOCC2)C1 [arylalkyne pyrazole-based compound, 33]
7.4	C#Cc1cc(-c2nn(CCCN3CCOCC3)c3c2CN(S(C)(=O)=O)CC3)ccc1Cl [arylalkyne pyrazole-based compound, 11]
